Assay results reported in PubChem BioAssay (NCI).
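Briefly, cells in 96-well plates were exposed to five compound concentrations for 48 h, and endpoints were estimated by linear interpolation. Abbreviation: GI50, concentration required for 50% inhibition of growth. TGI denotes the concentration required for complete inhibition of growth.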

How the values were obtained:
Assay in all cases: NCI tumour cell line growth inhibition, 48 h
SK-MEL-28 melanoma = system: SK-MEL-28 melanoma
NCI/ADR-RES ovarian = system: NCI/ADR-RES ovarian
HT29 colon = system: HT29 colon
786-0 renal = system: 786-0 renal
HOP-92 NSCLC = system: HOP-92 NSCLC
SR leukemia = system: SR leukemia
SNB-75 CNS = system: SNB-75 CNS
K-562 leukemia = system: K-562 leukemia
PC-3 prostate = system: PC-3 prostate
UACC-62 melanoma = system: UACC-62 melanoma
SF-539 CNS = system: SF-539 CNS
HS 578T breast = system: HS 578T breast
SN12C renal = system: SN12C renal
UACC-257 melanoma = system: UACC-257 melanoma
NCI-H522 lung = system: NCI-H522 lung
HCT-116 colon = system: HCT-116 colon
RPMI-8226 leukemia = system: RPMI-8226 leukemia
M14 melanoma = system: M14 melanoma
KM12 colon = system: KM12 colon
COLO 205 colon = system: COLO 205 colon
OVCAR-4 ovarian = system: OVCAR-4 ovarian
HL-60(TB) leukemia = system: HL-60(TB) leukemia
EKVX NSCLC = system: EKVX NSCLC
SK-MEL-5 melanoma = system: SK-MEL-5 melanoma
LOX IMVI melanoma = system: LOX IMVI melanoma
DU-145 prostate = system: DU-145 prostate
RXF 393 renal = system: RXF 393 renal
SK-OV-3 ovarian = system: SK-OV-3 ovarian
BT-549 breast = system: BT-549 breast
SF-295 CNS = system: SF-295 CNS
ACHN renal = system: ACHN renal
A498 renal = system: A498 renal
U251 CNS = system: U251 CNS
MCF7 breast = system: MCF7 breast
IGROV1 ovarian = system: IGROV1 ovarian
T-47D breast = system: T-47D breast
NCI-H23 lung = system: NCI-H23 lung
OVCAR-3 ovarian = system: OVCAR-3 ovarian
SNB-19 CNS = system: SNB-19 CNS
HCC-2998 colon = system: HCC-2998 colon
MDA-MB-468 breast = system: MDA-MB-468 breast
OVCAR-5 ovarian = system: OVCAR-5 ovarian
TK-10 renal = system: TK-10 renal
HCT-15 colon = system: HCT-15 colon
CCRF-CEM leukemia = system: CCRF-CEM leukemia
SW-620 colon = system: SW-620 colon
SK-MEL-2 melanoma = system: SK-MEL-2 melanoma
SF-268 CNS = system: SF-268 CNS
OVCAR-8 ovarian = system: OVCAR-8 ovarian
NCI-H226 lung = system: NCI-H226 lung
NCI-H460 lung = system: NCI-H460 lung
HOP-62 NSCLC = system: HOP-62 NSCLC
CAKI-1 renal = system: CAKI-1 renal
UO-31 renal = system: UO-31 renal
A549 NSCLC = system: A549 NSCLC
MDA-MB-435 = system: MDA-MB-435
MDA-MB-231 breast = system: MDA-MB-231 breast
MALME-3M melanoma = system: MALME-3M melanoma
MOLT-4 leukemia = system: MOLT-4 leukemia

`Clc1ccc(-c2nc3ccc(-c4nnc(SCc5ccccc5)o4)cc3[nH]2)cc1` was tested, and the GI50 (SK-MEL-28 melanoma) was 36.9 µM, the TGI (SK-MEL-28 melanoma) was greater than 100 µM and the GI50 (NCI/ADR-RES ovarian) was 4.09 µM. It also gave a TGI (NCI/ADR-RES ovarian) of 21.5 µM, a GI50 (HT29 colon) of 16.9 µM and a TGI (HT29 colon) greater than 100 µM. It also gave a GI50 (786-0 renal) of 4.03 µM, a TGI (786-0 renal) greater than 100 µM and a GI50 (HOP-92 NSCLC) of 11.5 µM. For the same molecule, the TGI (HOP-92 NSCLC) was 48.3 µM, the GI50 (SR leukemia) was 5.86 µM and the TGI (SR leukemia) was greater than 100 µM. The GI50 (SNB-75 CNS) was 2.13 µM, the TGI (SNB-75 CNS) was 22.9 µM and the GI50 (K-562 leukemia) was 4.78 µM. For the same molecule, the TGI (K-562 leukemia) was greater than 100 µM, the GI50 (PC-3 prostate) was 6.21 µM and the TGI (PC-3 prostate) was greater than 100 µM. The GI50 (UACC-62 melanoma) was 13.8 µM, the TGI (UACC-62 melanoma) was greater than 100 µM and the GI50 (SF-539 CNS) was 2.98 µM. For the same molecule, the TGI (SF-539 CNS) was 10.2 µM, the GI50 (HS 578T breast) was 12.2 µM and the TGI (HS 578T breast) was greater than 100 µM. It also gave a GI50 (SN12C renal) of 1.87 µM, a TGI (SN12C renal) of 4.05 µM and a GI50 (UACC-257 melanoma) of 22.8 µM. The TGI (UACC-257 melanoma) was greater than 100 µM, the GI50 (NCI-H522 lung) was 2.83 µM and the TGI (NCI-H522 lung) was 10.3 µM. It also gave a GI50 (HCT-116 colon) of 3.25 µM, a TGI (HCT-116 colon) greater than 100 µM and a GI50 (RPMI-8226 leukemia) of 8.07 µM. The TGI (RPMI-8226 leukemia) was greater than 100 µM, the GI50 (M14 melanoma) was 25.5 µM and the TGI (M14 melanoma) was greater than 100 µM. It also gave a GI50 (KM12 colon) of 17.6 µM, a TGI (KM12 colon) greater than 100 µM and a GI50 (COLO 205 colon) of 15.5 µM. It also gave a TGI (COLO 205 colon) greater than 100 µM, a GI50 (OVCAR-4 ovarian) of 3.87 µM and a TGI (OVCAR-4 ovarian) of 21.9 µM. For the same molecule, the GI50 (HL-60(TB) leukemia) was 26.2 µM, the TGI (HL-60(TB) leukemia) was greater than 100 µM and the GI50 (EKVX NSCLC) was 4.18 µM. The TGI (EKVX NSCLC) was 39 µM, the GI50 (SK-MEL-5 melanoma) was 4.87 µM and the TGI (SK-MEL-5 melanoma) was 33.4 µM. The GI50 (LOX IMVI melanoma) was 4.95 µM, the TGI (LOX IMVI melanoma) was 40.7 µM and the GI50 (DU-145 prostate) was 57 µM. For the same molecule, the TGI (DU-145 prostate) was greater than 100 µM, the GI50 (RXF 393 renal) was 3.58 µM and the TGI (RXF 393 renal) was 48.6 µM. The GI50 (SK-OV-3 ovarian) was 23 µM, the TGI (SK-OV-3 ovarian) was greater than 100 µM and the GI50 (BT-549 breast) was 24 µM. The TGI (BT-549 breast) was greater than 100 µM, the GI50 (SF-295 CNS) was 5.41 µM and the TGI (SF-295 CNS) was 52.3 µM. The GI50 (ACHN renal) was 14.5 µM, the TGI (ACHN renal) was greater than 100 µM and the GI50 (A498 renal) was 18.2 µM. For the same molecule, the TGI (A498 renal) was 42.5 µM, the GI50 (U251 CNS) was 2.69 µM and the TGI (U251 CNS) was 6.8 µM. For the same molecule, the GI50 (MCF7 breast) was 3.08 µM, the TGI (MCF7 breast) was greater than 100 µM and the GI50 (IGROV1 ovarian) was 7.37 µM. The TGI (IGROV1 ovarian) was greater than 100 µM, the GI50 (T-47D breast) was 3.05 µM and the TGI (T-47D breast) was 41.3 µM. It also gave a GI50 (NCI-H23 lung) of 6.21 µM, a TGI (NCI-H23 lung) of 74.2 µM and a GI50 (OVCAR-3 ovarian) of 2.7 µM. The TGI (OVCAR-3 ovarian) was 7.61 µM, the GI50 (SNB-19 CNS) was 5.85 µM and the TGI (SNB-19 CNS) was greater than 100 µM. For the same molecule, the GI50 (HCC-2998 colon) was 19.9 µM, the TGI (HCC-2998 colon) was greater than 100 µM and the GI50 (MDA-MB-468 breast) was 3.32 µM. The TGI (MDA-MB-468 breast) was 15.3 µM, the GI50 (OVCAR-5 ovarian) was 5.87 µM and the TGI (OVCAR-5 ovarian) was 97.1 µM. It also gave a GI50 (TK-10 renal) greater than 100 µM, a TGI (TK-10 renal) greater than 100 µM and a GI50 (HCT-15 colon) of 3.75 µM. It also gave a TGI (HCT-15 colon) of 27.4 µM, a GI50 (CCRF-CEM leukemia) of 4.91 µM and a TGI (CCRF-CEM leukemia) greater than 100 µM. For the same molecule, the GI50 (SW-620 colon) was 3.41 µM, the TGI (SW-620 colon) was 43.2 µM and the GI50 (SK-MEL-2 melanoma) was 16.2 µM. The TGI (SK-MEL-2 melanoma) was greater than 100 µM, the GI50 (SF-268 CNS) was 7.59 µM and the TGI (SF-268 CNS) was greater than 100 µM. The GI50 (OVCAR-8 ovarian) was 6.49 µM, the TGI (OVCAR-8 ovarian) was 27.5 µM and the GI50 (NCI-H226 lung) was 7.54 µM. For the same molecule, the TGI (NCI-H226 lung) was 36 µM, the GI50 (NCI-H460 lung) was 5.37 µM and the TGI (NCI-H460 lung) was greater than 100 µM. The GI50 (HOP-62 NSCLC) was 16.4 µM, the TGI (HOP-62 NSCLC) was 86.6 µM and the GI50 (CAKI-1 renal) was 16.1 µM. The TGI (CAKI-1 renal) was 54.7 µM, the GI50 (UO-31 renal) was 9.18 µM and the TGI (UO-31 renal) was greater than 100 µM. It also gave a GI50 (A549 NSCLC) of 3.78 µM, a TGI (A549 NSCLC) greater than 100 µM and a GI50 (MDA-MB-435) of 8.65 µM. The TGI (MDA-MB-435) was greater than 100 µM, the GI50 (MDA-MB-231 breast) was 5.36 µM and the TGI (MDA-MB-231 breast) was 36.1 µM. For the same molecule, the GI50 (MALME-3M melanoma) was 16.1 µM, the TGI (MALME-3M melanoma) was 83.2 µM and the GI50 (MOLT-4 leukemia) was 4.71 µM. It also gave a TGI (MOLT-4 leukemia) greater than 100 µM.
